How the values were obtained:
[1] = system: velvetleaf; test: Test B pre/postemergence velvetleaf; type: in vivo, Abutilon theophrasti
In short: (§1)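 Test chemicals in a non-phytotoxic solvent mixture with surfactant were sprayed preemergence onto planted seeds and postemergence onto plants 2 to 18 cm tall (1- to 4-leaf stage). After twelve to sixteen days in a greenhouse, injury was visually rated against untreated controls from 0 (no effect) to 10 (complete control).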

[2] = system: corn; test: Test B pre/postemergence corn; type: in vivo, Zea mays
In short: as §1

[3] = system: giant foxtail; test: Test B pre/postemergence giant foxtail; type: in vivo, Setaria faberii
In short: as §1

[4] = system: purple nutsedge; test: Test B pre/postemergence purple nutsedge; type: in vivo, Cyperus rotundus
In short: as §1

[5] = system: wheat; test: Test B pre/postemergence wheat; type: in vivo, Triticum aestivum
In short: as §1

[6] = system: cocklebur; test: Test B pre/postemergence cocklebur; type: in vivo, Xanthium strumarium
In short: as §1

[7] = system: blackgrass; test: Test B pre/postemergence blackgrass; type: in vivo, Alopecurus myosuroides
In short: as §1

[8] = system: crabgrass; test: Test B pre/postemergence crabgrass; type: in vivo, Digitaria sanguinalis
In short: as §1

[9] = system: wild oat; test: Test B pre/postemergence wild oat; type: in vivo, Avena fatua
In short: as §1

[10] = system: duck salad; test: Test B flood test duck salad; type: in vivo, Heteranthera limosa; conditions: Pre-emergence
In short: (§2)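 Read-out is a visual response score from 0 (no effect) to 10 (complete control), assigned by comparison with untreated controls. Treatment was applied at the 2-leaf stage, and plants stayed in the greenhouse for twelve to sixteen days before scoring.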

[11] = system: surinam grass; test: Test B pre/postemergence surinam grass; type: in vivo, Brachiaria decumbens
In short: as §1

[12] = system: morningglory; test: Test B pre/postemergence morningglory; type: in vivo, Ipomoea hederacea
In short: as §1

[13] = system: rice; test: Test B flood test rice; type: in vivo, Oryza sativa; conditions: Pre-emergence
In short: as §2

[14] = system: smallflower flatsedge; test: Test B flood test smallflower flatsedge; type: in vivo, Cyperus difformis; conditions: Pre-emergence
In short: as §2

[15] = system: bamyardgrass; test: Test B flood test barnyardgrass; type: in vivo, Echinochloa crus-galli; conditions: Pre-emergence
In short: as §2

[16] = system: bedstraw; test: Test B pre/postemergence bedstraw; type: in vivo, Galium aparine
In short: as §1

[17] = Preemergence, Rate 62 g/ha, scale of 0 to 10 where 0 is no effect and 10 is complete control
[18] = Preemergence, Rate 250 g/ha, scale of 0 to 10 where 0 is no effect and 10 is complete control
[19] = Preemergence, Rate 500 g/ha, scale of 0 to 10 where 0 is no effect and 10 is complete control
[20] = Rate 62 g/ha, Postemergence, scale 0 to 10, 0 no effect, 10 complete control
[21] = Rate 125 g/ha, Postemergence, scale of 0 to 10 where 0 is no effect and 10 is complete control
[22] = Rate 250 g/ha, Postemergence, scale of 0 to 10 where 0 is no effect and 10 is complete control
[23] = Rate 500 g/ha, Postemergence, scale 0 to 10, 0 no effect, 10 complete control
[24] = Rate 1000 g/ha, scale 0 to 10 (0 no effect, 10 complete control)
[25] = Rate 125 g/ha, flood test species, scale 0 to 10 where 0 is no effect and 10 is complete control
[26] = Rate 250 g/ha, flood-test species, scale 0 to 10, 0 is no effect, 10 is complete control

## CC(C)N(C(=O)n1oc(=O)n(CC2CCCC2)c1=O)c1ccc(F)cc1 [Compound 322]
[1]; [17]
  Velvetleaf plant response rating: 0
[1]; Preemergence, Rate 125 g/ha
  Velvetleaf plant response rating (0 to 10 scale): 0
[1]; [18]
  Velvetleaf plant response rating: 0
[1]; [19]
  Velvetleaf plant response rating: 0
[1]; [20]
  Velvetleaf plant response rating: 0
[1]; [21]
  Velvetleaf plant response rating: 0
[1]; [22]
  Plant response rating, Velvetleaf: 0
[1]; [23]
  Plant response rating, Velvetleaf: 2
[2]; [17]
  Corn plant response rating: 0
[2]; Preemergence, Rate 125 g/ha
  Corn plant response rating (0 to 10 scale): 0
[2]; [18]
  Corn plant response rating: 0
[2]; [19]
  Corn plant response rating: 0
[2]; [20]
  Corn plant response rating: 0
[2]; [21]
  Corn plant response rating: 0
[2]; [22]
  Plant response rating, Corn: 0
[2]; [23]
  Plant response rating, Corn: 0
[3]; [17]
  Giant foxtail plant response rating: 6
[3]; Preemergence, Rate 125 g/ha
  Giant foxtail plant response rating (0 to 10 scale): 9
[3]; [18]
  Giant foxtail plant response rating: 9
[3]; [19]
  Giant foxtail plant response rating: 10
[3]; [20]
  Giant foxtail plant response rating: 0
[3]; [21]
  Giant foxtail plant response rating: 0
[3]; [22]
  Plant response rating, Giant foxtail: 1
[3]; [23]
  Plant response rating, Giant foxtail: 4
[4]; [17]
  Nutsedge plant response rating: 0
[4]; Preemergence, Rate 125 g/ha
  Nutsedge plant response rating (0 to 10 scale): 0
[4]; [18]
  Nutsedge plant response rating: 0
[4]; [19]
  Nutsedge plant response rating: 0
[4]; [20]
  Nutsedge plant response rating: 0
[4]; [21]
  Nutsedge plant response rating: 0
[4]; [22]
  Plant response rating, Nutsedge: 0
[4]; [23]
  Plant response rating, Nutsedge: 0
[5]; [17]
  Wheat plant response rating: 0
[5]; Preemergence, Rate 125 g/ha
  Wheat plant response rating (0 to 10 scale): 0
[5]; [18]
  Wheat plant response rating: 0
[5]; [19]
  Wheat plant response rating: 0
[5]; [20]
  Wheat plant response rating: 0
[5]; [21]
  Wheat plant response rating: 0
[5]; [22]
  Plant response rating, Wheat: 0
[5]; [23]
  Plant response rating, Wheat: 3
[6]; [17]
  Cocklebur plant response rating: 0
[6]; Preemergence, Rate 125 g/ha
  Cocklebur plant response rating (0 to 10 scale): 0
[6]; [18]
  Cocklebur plant response rating: 0
[6]; [19]
  Cocklebur plant response rating: 4
[6]; [20]
  Cocklebur plant response rating: 0
[6]; [21]
  Cocklebur plant response rating: 0
[6]; [22]
  Plant response rating, Cocklebur: 0
[6]; [23]
  Plant response rating, Cocklebur: 4
[7]; [17]
  Blackgrass plant response rating: 0
[7]; Preemergence, Rate 125 g/ha
  Blackgrass plant response rating (0 to 10 scale): 0
[7]; [18]
  Blackgrass plant response rating: 5
[7]; [19]
  Blackgrass plant response rating: 7
[7]; [20]
  Blackgrass plant response rating: 0
[7]; [21]
  Blackgrass plant response rating: 0
[7]; [22]
  Plant response rating, Blackgrass: 1
[7]; [23]
  Plant response rating, Blackgrass: 8
[8]; [17]
  Crabgrass plant response rating: 1
[8]; Preemergence, Rate 125 g/ha
  Crabgrass plant response rating (0 to 10 scale): 2
[8]; [18]
  Crabgrass plant response rating: 5
[8]; [19]
  Crabgrass plant response rating: 7
[8]; [20]
  Crabgrass plant response rating: 0
[8]; [21]
  Crabgrass plant response rating: 0
[8]; [22]
  Plant response rating, Crabgrass: 2
[8]; [23]
  Plant response rating, Crabgrass: 5
[9]; [17]
  Wild oats plant response rating: 0
[9]; Preemergence, Rate 125 g/ha
  Wild oats plant response rating (0 to 10 scale): 0
[9]; [18]
  Wild oats plant response rating: 2
[9]; [19]
  Wild oats plant response rating: 3
[9]; [20]
  Wild oats plant response rating: 0
[9]; [21]
  Wild oats plant response rating: 0
[9]; [22]
  Plant response rating, Wild oats: 0
[9]; [23]
  Plant response rating, Wild oats: 2
[10]; [24]
  Ducksalad plant response rating: 0
[10]; [25]
  Ducksalad plant response rating: 0
[10]; [26]
  Ducksalad plant response rating: 0
[11]; [17]
  B. signalgrass plant response rating: 0
[11]; Preemergence, Rate 125 g/ha
  B. signalgrass plant response rating (0 to 10 scale, 0 is no effect, 10 is complete control): 0
[11]; [18]
  B. signalgrass plant response rating: 1
[11]; [19]
  B. signalgrass plant response rating: 3
[11]; [20]
  B. signalgrass plant response rating: 0
[11]; [21]
  B. signalgrass plant response rating: 0
[11]; [22]
  Plant response rating, B. signalgrass: 0
[11]; [23]
  Plant response rating, B. signalgrass: 3
[12]; [17]
  Morningglory plant response rating: 0
[12]; Preemergence, Rate 125 g/ha
  Morningglory plant response rating (0 to 10 scale): 0
[12]; [18]
  Morningglory plant response rating: 0
[12]; [19]
  Morningglory plant response rating: 0
[12]; [20]
  Morningglory plant response rating: 4
[12]; [21]
  Morningglory plant response rating: 4
[12]; [22]
  Plant response rating, Morningglory: 7
[12]; [23]
  Plant response rating, Morningglory: 8
[13]; [24]
  Rice plant response rating: 0
[13]; [25]
  Rice plant response rating: 0
[13]; [26]
  Rice plant response rating: 0
[14]; [24]
  S. Flatsedge plant response rating: 0
[14]; [25]
  S. Flatsedge plant response rating: 0
[14]; [26]
  S. Flatsedge plant response rating: 0
[15]; [24]
  Barnyardgrass plant response rating: 9
[15]; [25]
  Barnyardgrass plant response rating: 3
[15]; [26]
  Barnyardgrass plant response rating: 7
[16]; [17]
  Bedstraw plant response rating: 0
[16]; Preemergence, Rate 125 g/ha
  Bedstraw plant response rating (0 to 10 scale): 0
[16]; [19]
  Bedstraw plant response rating: 2
[16]; [20]
  Bedstraw plant response rating: 0
[16]; [21]
  Bedstraw plant response rating: 0
[16]; [22]
  Plant response rating, Bedstraw: 4
[16]; [23]
  Plant response rating, Bedstraw: 4
